In patent US20220218732A1, “Selective Inhibitors Of Protein Arginine Methyltransferase 5 (PRMT5)” (Prelude Therapeutics, Incorporated, priority 2019, published 2022):
Counter-ions that a name gives are not always drawn. Like-named read-outs stand apart in the source and are kept apart here.

Key:
[1] = Rat non-crossover PK study of Example 92; assay type: in vivo
Description: In a rat (SD, male, non-fasted) non-crossover PK study, Example 92 was dosed at 1 mg/kg (DMA: 20% HPBCD=5:95, solution) via i.v. administration (N=2) and 1 mg/kg (0.5% Na CMC+0.5% Tween80, solution) via oral gauge (p.o.) (N=2).

[2] = test system: Symmetric Di-Methyl Arginine (sDMA) marks in Granta-519 cell line; experiment: Cellular assay: Western blot of sDMA (SmD3me2s) and H3R8me2s marks in Granta cells, 3 days, IC50; assay type: cell-based; settings: Homo sapiens, 72 h, Table 7
PRMT5/MEP50 complex = PRMT5/MEP50 complex (Homo sapiens, UniProt O14744); experiment: Biochemical assay: PRMT5/MEP50 methylation of histone H2A with 3H-SAM, filter plate scintillation
Sequence of PRMT5/MEP50 complex (O14744 whole entry, species assumed): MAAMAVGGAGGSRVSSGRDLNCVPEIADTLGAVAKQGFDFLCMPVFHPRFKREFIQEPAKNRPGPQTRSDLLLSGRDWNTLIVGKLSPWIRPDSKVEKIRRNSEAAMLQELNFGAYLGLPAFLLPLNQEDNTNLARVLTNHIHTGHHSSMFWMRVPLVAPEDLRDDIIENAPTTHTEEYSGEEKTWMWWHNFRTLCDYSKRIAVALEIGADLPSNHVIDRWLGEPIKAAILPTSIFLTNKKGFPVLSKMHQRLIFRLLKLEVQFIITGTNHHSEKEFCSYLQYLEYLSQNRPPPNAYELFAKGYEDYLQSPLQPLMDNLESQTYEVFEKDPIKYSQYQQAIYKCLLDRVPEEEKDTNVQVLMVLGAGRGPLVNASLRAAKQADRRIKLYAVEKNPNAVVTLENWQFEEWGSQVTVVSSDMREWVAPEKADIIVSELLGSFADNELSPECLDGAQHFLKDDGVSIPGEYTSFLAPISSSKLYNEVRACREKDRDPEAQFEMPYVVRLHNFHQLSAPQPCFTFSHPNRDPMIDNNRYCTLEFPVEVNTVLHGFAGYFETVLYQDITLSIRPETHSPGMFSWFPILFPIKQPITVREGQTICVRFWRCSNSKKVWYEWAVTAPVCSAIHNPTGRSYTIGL
Sequence of PRMT5/MEP50 complex (Q9BQA1 whole entry partner, species assumed): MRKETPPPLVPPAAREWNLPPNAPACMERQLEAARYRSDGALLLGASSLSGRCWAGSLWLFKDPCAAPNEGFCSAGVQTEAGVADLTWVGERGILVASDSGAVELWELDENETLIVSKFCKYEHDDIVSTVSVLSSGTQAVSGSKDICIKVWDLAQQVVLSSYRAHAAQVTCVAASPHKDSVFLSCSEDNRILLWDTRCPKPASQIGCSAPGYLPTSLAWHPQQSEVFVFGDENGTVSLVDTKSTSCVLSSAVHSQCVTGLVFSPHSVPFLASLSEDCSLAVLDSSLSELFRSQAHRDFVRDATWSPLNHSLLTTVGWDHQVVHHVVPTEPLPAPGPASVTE
Description: Compounds were solubilized, and 3-fold diluted in 100% DMSO. […] Standard reactions were performed in a total volume of 50 μl in assay buffer, with histone H2A (5 μM final) as substrate. To this was added the PRMT5/MEP50 complex diluted to provide a final assay concentration of 5 nM and the compounds were allowed to preincubate for 15 to 20 minutes at room temperature. The reaction was initiated by adding S-[3H-methyl]-adenosyl-L-methionine (PerkinElmer) to final concentration of 1 μM. Following a 60 minutes incubation at 30° C., the reaction was stopped by adding 100 μL of 20% TCA. Each reaction was spotted onto filter plate (MultiScreen FB Filter Plate, Millipore), and washed 5 times with PBS buffer, Scintillation fluid was added to the filter plate and read in a scintillation counter. IC50 values were determined by fitting the data to the standard 4 parameters with Hill Slope using GraphPad Prism software.

[3] = Rat non-crossover cassette PK study of Example 36; assay type: in vivo; settings: rat SD male non-fasted, 2 mg/kg p.o.
Description: In a rat (SD, male, non-fasted) non-crossover cassette PK study, Example 36 was dosed at 0.25 mg/kg via i.v. administration (N=3) and 2 mg/kg via oral gauge (p.o.) (N=3) with other 3 compounds.

[4] = test system: Type II Collagen-Induced Arthritis (CIA) in female Lewis rats; experiment: Rat type II collagen-induced arthritis (CIA) model; assay type: in vivo; settings: 15 mg/kg PO QD
Description: Female Lewis rats were injected intradermally/subcutaneously (ID/SC) with porcine type II collagen to induce arthritis on Study Days 0 & 7. Rats were then dosed once daily (QD) on Study Days 0-24 (developing) or Days 6-24 (semi-established) by the oral (PO) route with Example 92 (15 mg/kg) or vehicle (0.5% Na CMC+0.5% Tween80, suspension). Rats were euthanized for necropsy on Study Day 25. Efficacy evaluation was based daily ankle diameter caliper measurements, terminal hind paw weights, and histopathology of ankles and knees.

[5] = developing mode (Days 0-24), P<0.001

C[C@@](O)(c1ccc(Cl)c(Cl)c1)[C@H]1O[C@@H](n2cnc3c(N)ncnc32)[C@H](O)[C@@H]1O [Example 1-C, (2R,3R,4S,5S)-2-(6-amino-9H-purin-9-yl)-5-((R)-1-(3,4-dichlorophenyl)-1-hydroxyethyl)tetrahydrofuran-3,4-diol]
metabolite in blood samples ([1]; rat, after dosing of Example 92): detected | average of AUC0-int of metabolite ([1]; rat, metabolite after dosing of Example 92): 284 ng·kg·h/mL/mg

CO/N=c1\nc[nH]c2c1ccn2[C@@H]1O[C@H]([C@H](O)c2ccc(Cl)c(Cl)c2)[C@@H](O)[C@H]1O [Example 69, 7-((2R,3R,4S,5R)-5-((R)-(3,4-dichlorophenyl)(hydroxy)methyl)-3,4-dihydroxytetrahydrofuran-2-yl)-1,7-dihydro-4H-pyrrolo[2,3-d]pyrimidin-4-one O-methyl oxime hydrochloride]
IC50 [2]: 28 nM

CCO/N=c1\nc[nH]c2c1ccn2[C@@H]1OC([C@](C)(O)c2ccc(Cl)cc2)[C@@H](O)[C@H]1O (stereo partly drawn) [Example 83, 7-((2R,3R,4S)-5-((R)-1-(4-chlorophenyl)-1-hydroxyethyl)-3,4-dihydroxytetrahydrofuran-2-yl)-1,7-dihydro-4H-pyrrolo[2,3-d]pyrimidin-4-one O-ethyl oxime]
IC50 (PRMT5/MEP50 complex; Table 7, histone H2A substrate, 5 nM enzyme, read-out: PRMT5/MEP50 IC50): 29.1 nM | IC50 [2]: 97 nM

C[C@@H](c1ccc(Cl)cc1)[C@H]1O[C@@H](n2ccc3c(N)ncnc32)[C@H](O)[C@@H]1O [Example 5-C, (2R,3R,4S,5R)-2-(4-amino-7H-pyrrolo[2,3-d]pyrimidin-7-yl)-5-((S)-1-(4-chlorophenyl)ethyl)tetrahydrofuran-3,4-diol hydrochloride]
IC50 (PRMT5/MEP50 complex; Table 9, compounds of Formula V and Formula VI, read-out: PRTMT5/MEP50 IC50): 37 nM

CO/N=c1/nc[nH]c2c1ccn2[C@@H]1O[C@H]([C@H](O)c2ccc(Cl)cc2)[C@@H](O)[C@H]1O [Example 36, (2R,3S,4R,5R)-2-[(R)-(4-chlorophenyl)-hydroxy-methyl]-5-(-4-methoxyimino-1H-pyrrolo[2,3-d]pyrimidin-7-yl]tetrahydrofuran-3,4-diol]
average dose normalized AUC [3]: 1738 ng·kg·h/mL/mg

CO/N=c1\[nH]cnc2c1ncn2[C@@H]1O[C@H]([C@](C)(O)c2ccc(Cl)c(Cl)c2)[C@@H](O)[C@H]1O [Example 92, (2S,3S,4R,5R)-2-[(1R)-1-(3,4-dichlorophenyl)-1-hydroxy-ethyl]-5-[(6Z)-6-methoxyimino-1H-purin-9-yl]tetrahydrofuran-3,4-diol]
histopathology parameters in ankles and knees ([4]; both modes, versus vehicle controls): significantly inhibited all histopathology parameters | reduction in ankle diameter [4, 5]: 63% | reduction in hind paw weight [4, 5]: 67% | reduction in hind paw weight ([4]; semi-established mode (Days 6-24), P<0.01): 51% | reduction in ankle diameter ([4]; semi-established mode (Days 6-24), P<0.05): 34% | average dose normalized AUC0-inf ([1]; rat SD male non-fasted, 1 mg/kg p.o.): 2184 ng·kg·h/mL/mg
